Experimental data: US20150133426A1, “SUBSTITUTED PYRROLOPYRIMIDINES” (BAYER PHARMA AKTIENGESELLSCHAFT, priority 2012, published 2015)

Target: T1, human full-length MKNK1 (Homo sapiens, UniProt Q9BUB5, T385D)
T1 construct: purchased Carna Biosciences 02-145; host or cells: insect cells, baculovirus expression system
Assay: MKNK1 kinase high ATP assay (TR-FRET)
Assay type: biochemical
Settings: high ATP (2 mM), 15 min preincubation with enzyme, GST-MKNK1 (T344D)
Outline: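 GST-tagged full-length human MKNK1 (aa 1-424, T344D), baculovirus-expressed, preincubated 15 min with compound, then reacted 30 min at 22 °C with 2 mM ATP and 0.06 µM biotinylated peptide (final).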

T1 sequence (Q9BUB5 1-424 isoform Q9BUB5-2 T344D): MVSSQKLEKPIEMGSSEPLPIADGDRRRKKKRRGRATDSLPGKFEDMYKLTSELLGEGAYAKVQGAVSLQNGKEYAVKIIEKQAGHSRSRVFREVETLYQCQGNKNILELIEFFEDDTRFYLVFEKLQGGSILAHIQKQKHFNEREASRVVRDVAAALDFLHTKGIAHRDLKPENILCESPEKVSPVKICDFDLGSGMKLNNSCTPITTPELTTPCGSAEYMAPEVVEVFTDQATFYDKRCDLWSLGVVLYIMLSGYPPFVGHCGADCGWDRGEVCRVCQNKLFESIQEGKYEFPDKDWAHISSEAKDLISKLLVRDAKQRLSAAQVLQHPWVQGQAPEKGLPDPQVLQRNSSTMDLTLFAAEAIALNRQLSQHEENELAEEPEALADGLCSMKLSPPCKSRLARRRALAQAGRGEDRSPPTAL

Structure (SMILES) | IC50 [nM]
CC(C)Oc1cc2[nH]ncc2cc1Nc1ncnc2[nH]c3c(c12)CCCC3 [Example 126] | 5
CS(=O)(=O)CCCNC(=O)C1CCc2[nH]c3ncnc(Nc4ccc5c(c4)CCS5(=O)=O)c3c2C1 (racemic) [Example 52, (RS)-4-[(1,1-Dioxido-2,3-dihydro-1-benzothiophen-5-yl)amino]-N-[3-(methylsulfonyl)propyl]-6,7,8,9-tetrahydro-5H-pyrimido[4,5-b]indole-6-carboxamide] | 904
CC(C)Oc1cc(F)ccc1Nc1ncnc2[nH]c3c(c12)CC(F)(F)CC3 [Example 9, 6,6-Difluoro-N-(4-fluoro-2-isopropoxyphenyl)-6,7,8,9-tetrahydro-5H-pyrimido[4,5-b]indol-4-amine] | 85
Nc1cc(F)c([N+](=O)[O-])cc1Nc1ncnc2[nH]c3c(c12)CCCC3 [Example 109] | ≥ 20000
COc1ccc(N(C)C)cc1Nc1ncnc2[nH]c3c(c12)CC(C(=O)NCCCS(C)(=O)=O)CC3 (racemic) [Example 158, (RS)-4-{[5-(Dimethylamino)-2-methoxyphenyl]amino}-N-[3-(methylsulfonyl)propyl]-6,7,8,9-tetrahydro-5H-pyrimido[4,5-b]indole-6-carboxamide] | ≥ 20000
CN1CCN(C(=O)C2CCc3[nH]c4ncnc(Nc5ccc6[nH]c(=O)sc6c5)c4c3C2)CC1 (racemic) [Example 222, (RS)-6-({6-[(4-Methylpiperazin-1-yl)carbonyl]-6,7,8,9-tetrahydro-5H-pyrimido[4,5-b]indol-4-yl}amino)-1,3-benzothiazol-2(3H)-one] | 25
CC(C)Oc1cc(F)ccc1Nc1ncnc2[nH]c3c(c12)CN(Cc1ccccc1)CC3 [Example 8, 6-Benzyl-N-(4-fluoro-2-isopropoxyphenyl)-6,7,8,9-tetrahydro-5H-pyrido[3′,4′:4,5]pyrrolo[2,3-d]pyrimidin-4-amine] | 2940
Cc1ccc(Nc2ncnc3[nH]c4c(c23)CC(C(=O)NCCCS(C)(=O)=O)CC4)cc1S(=O)(=O)O (racemic) [Example 59, (RS)-2-Methyl-5-[(6-{[3-(methylsulfonyl)propyl]carbamoyl}-6,7,8,9-tetrahydro-5H-pyrimido[4,5-b]indol-4-yl)amino]benzenesulfonic acid] | 124
CS(=O)(=O)CCCNC(=O)C1CCc2[nH]c3ncnc(Nc4cccc(-c5cnco5)c4)c3c2C1 (racemic) [Example 55, (RS)—N-[3-(Methylsulfonyl)propyl]-4-{[3-(1,3-oxazol-5-yl)phenyl]amino}-6,7,8,9-tetrahydro-5H-pyrimido[4,5-b]indole-6-carboxamide] | 511
CS(=O)(=O)CCCNC(=O)C1CCc2[nH]c3ncnc(Nc4ccc(C(=O)N5CCCC5)cc4)c3c2C1 (racemic) [Example 38, (RS)—N-[3-(Methylsulfonyl)propyl]-4-{[4-(pyrrolidin-1-ylcarbonyl)phenyl]amino}-6,7,8,9-tetrahydro-5H-pyrimido[4,5-b]indole-6-carboxamide] | 10600
COP(C)(=O)c1ccc(Nc2ncnc3[nH]c4c(c23)CC(C(=O)NCCCS(C)(=O)=O)CC4)cc1 (racemic) [Example 64, (RS)-Methyl methyl{4-[(6-{[3-(methylsulfonyl)propyl]carbamoyl}-6,7,8,9-tetrahydro-5H-pyrimido[4,5-b]indol-4-yl)amino]phenyl}phosphinate] | 19700
O=c1[nH]c2ccc(Nc3ncnc4[nH]c5c(c34)CC(F)(F)CC5)cc2s1 [Example 142] | 38
O=C(NCc1cccc(C(F)(F)F)c1)C1CCc2[nH]c3ncnc(N4CCc5ccccc54)c3c2C1 (racemic) [Example 210, (RS)-4-(2,3-Dihydro-1H-indol-1-yl)-N-[3-(trifluoromethyl)benzyl]-6,7,8,9-tetrahydro-5H-pyrimido[4,5-b]indole-6-carboxamide] | ≥ 20000
CS(=O)(=O)CCCNC(=O)C1CCc2[nH]c3ncnc(Nc4ccc5[nH]c(=S)sc5c4)c3c2C1 (racemic) [Example 155, (RS)—N-[3-(Methylsulfonyl)propyl]-4-[(2-thioxo-2,3-dihydro-1,3-benzothiazol-6-yl)amino]-6,7,8,9-tetrahydro-5H-pyrimido[4,5-b]indole-6-carboxamide] | 504
COCC1(OC)CCc2[nH]c3ncnc(Nc4cc(Cl)ccc4OC)c3c2C1 (racemic) [Example 133] | 205
COc1cc2[nH]c(=O)[nH]c2cc1Nc1ncnc2[nH]c3c(c12)CC(C(=O)NCCCS(C)(=O)=O)CC3 (racemic) [Example 164, (RS)-4-[(6-Methoxy-2-oxo-2,3-dihydro-1H-benzimidazol-5-yl)amino]-N-[3-(methylsulfonyl)propyl]-6,7,8,9-tetrahydro-5H-pyrimido[4,5-b]indole-6-carboxamide] | 225
CS(=O)(=O)CCCNC(=O)C1CCc2[nH]c3ncnc(Nc4ccc5[nH]ncc5c4)c3c2C1 (racemic) [Example 14, (RS)-4-(1H-Indazol-5-ylamino)-N-[3-(methylsulfonyl)propyl]-6,7,8,9-tetrahydro-5H-pyrimido[4,5-b]indole-6-carboxamide] | 8
CS(=O)(=O)CCCNC(=O)C1CCc2[nH]c3ncnc(Nc4ccc(S(N)(=O)=O)cc4)c3c2C1 (racemic) [Example 48, (RS)—N-[3-(Methylsulfonyl)propyl]-4-[(4-sulfamoylphenyl)amino]-6,7,8,9-tetrahydro-5H-pyrimido[4,5-b]indole-6-carboxamide] | 2840
CS(=O)(=O)CCCNC(=O)C1CCc2[nH]c3ncnc(Nc4cc5cn[nH]c5cc4F)c3c2C1 (racemic) [Example 61, (RS)-4-[(6-Fluoro-1H-indazol-5-yl)amino]-N-[3-(methylsulfonyl)propyl]-6,7,8,9-tetrahydro-5H-pyrimido[4,5-b]indole-6-carboxamide] | 17
c1nc(Nc2ccc3[nH]ncc3c2)c2c3c([nH]c2n1)CCC1(C3)OCCO1 [Example 27, N-(1H-Indazol-5-yl)-5′,7′,8′,9′-tetrahydrospiro[1,3-dioxolane-2,6′-pyrimido[4,5-b]indol]-4′-amine] | 51

Next, values leading:

IC50 [nM] | Structure (SMILES)
181 | CN1CCN(C(=O)C2CCc3[nH]c4ncnc(Nc5ccccc5OC5CCCC5)c4c3C2)CC1 (racemic) [Example 192, (RS)-(4-{[2-(Cyclopentyloxy)phenyl]amino}-6,7,8,9-tetrahydro-5H-pyrimido[4,5-b]indol-6-yl)(4-methylpiperazin-1-yl)methanone]
406 | CC(C)Oc1cc(F)ccc1Nc1ncnc2[nH]c3c(c12)CC(C(=O)O)CC3 (racemic) [Example 183, (RS)-4-{[4-Fluoro-2-(propan-2-yloxy)phenyl]amino}-6,7,8,9-tetrahydro-5H-pyrimido[4,5-b]indole-6-carboxylic acid]
193 | CC(C)COc1ccccc1Nc1ncnc2[nH]c3c(c12)CC(C(=O)NCCCS(C)(=O)=O)CC3 (racemic) [Example 153, (RS)-4-{[2-(2-Methylpropoxy)phenyl]amino}-N-[3-(methylsulfonyl)propyl]-6,7,8,9-tetrahydro-5H-pyrimido[4,5-b]indole-6-carboxamide]
15 | O=C(Nc1ccccc1)C1CCc2[nH]c3ncnc(Nc4ccc5[nH]ncc5c4)c3c2C1 (racemic) [Example 16, (RS)-4-(1H-Indazol-5-ylamino)-N-phenyl-6,7,8,9-tetrahydro-5H-pyrimido[4,5-b]indole-6-carboxamide]
267 | CC(C)NC(=O)C1CCc2[nH]c3ncnc(Nc4ccccc4N4CCOCC4)c3c2C1 (racemic) [Example 202, (RS)-4-{[2-(Morpholin-4-yl)phenyl]amino}-N-(propan-2-yl)-6,7,8,9-tetrahydro-5H-pyrimido[4,5-b]indole-6-carboxamide]
1900 | CCOC(=O)C1CCc2[nH]c3ncnc(Nc4ccccc4OC4CCCC4)c3c2C1 (racemic) [Example 170, (RS)-Ethyl 4-{[2-(cyclopentyloxy)phenyl]amino}-6,7,8,9-tetrahydro-5H-pyrimido[4,5-b]indole-6-carboxylate]
18 | CCOC(=O)C1CCc2[nH]c3ncnc(Nc4ccc5[nH]ncc5c4)c3c2C1 (racemic) [Example 5, (RS)-Ethyl 4-(1H-indazol-5-ylamino)-6,7,8,9-tetrahydro-5H-pyrimido[4,5-b]indole-6-carboxylate]
171 | O=C(NC1CC1)C1CCc2[nH]c3ncnc(Nc4ccccc4OC4CCCC4)c3c2C1 (racemic) [Example 191, (RS)-4-{[2-(Cyclopentyloxy)phenyl]amino}-N-cyclopropyl-6,7,8,9-tetrahydro-5H-pyrimido[4,5-b]indole-6-carboxamide]
1270 | CS(=O)(=O)CCCNC(=O)C1CCc2[nH]c3ncnc(Nc4cccc5c4CNC5=O)c3c2C1 (racemic) [Example 81, (RS)—N-[3-(Methylsulfonyl)propyl]-4-[(1-oxo-2,3-dihydro-1H-isoindol-4-yl)amino]-6,7,8,9-tetrahydro-5H-pyrimido[4,5-b]indole-6-carboxamide]
242 | O=C(Nc1ccccc1)C1CCc2[nH]c3ncnc(Nc4ccccc4N4CCOCC4)c3c2C1 (racemic) [Example 205, (RS)-4-{[2-(Morpholin-4-yl)phenyl]amino}-N-phenyl-6,7,8,9-tetrahydro-5H-pyrimido[4,5-b]indole-6-carboxamide]
13 | CCOC(=O)C1CCc2[nH]c3ncnc(Nc4cc5cn[nH]c5cc4OC)c3c2C1 (racemic) [Example 179, (RS)-Ethyl 4-[(6-methoxy-1H-indazol-5-yl)amino]-6,7,8,9-tetrahydro-5H-pyrimido[4,5-b]indole-6-carboxylate]
89 | c1ccc(OC2CCOCC2)c(Nc2ncnc3[nH]c4c(c23)CCCC4)c1 [Example 130, N-[2-(tetrahydro-2H-pyran-4-yloxy)phenyl]-6,7,8,9-tetrahydro-5H-pyrimido[4,5-b]indol-4-amine]
6 | COc1cc(Cl)c(Cl)cc1Nc1ncnc2[nH]c3c(c12)CC(C(=O)NC1CC1)CC3 (racemic) [Example 20, (RS)—N-Cyclopropyl-4-[(4,5-dichloro-2-methoxyphenyl)amino]-6,7,8,9-tetrahydro-5H-pyrimido[4,5-b]indole-6-carboxamide]
